# Test results as given in patent US20260232554A1, “ORAL CARE AGENT WITH DIMETHYLGLYCINE” (Dr. Kurt Wolff GmbH & Co. KG, priority 2023, published 2026).
# Key:
# Type in all cases: cell-based, human
# HaCaT cells [1] = test: CyQUANT assay, cell proliferation; details: after 48 h and 72 h of cultivation, versus control without DMG
# Method: (§1) As part of an in vitro study, the effect of sodium dimethylglycinate was investigated in a cell culture model with human keratin-forming keratinocyte cells. For this purpose, HaCaT cells were cultured for 1, 3, 5 and 7 days in DMEM medium (including fetal calf serum and an antibiotic-antimycotic mix) and the viability, proliferation and migration of the cells were determined using suitable measurement methods and the expression of growth factors relevant for cell growth was determined.
# A so-called CyQUANT assay was used to measure proliferation. In this fluorescence-based assay, the fluorescent dye used binds to DNA (deoxyribonucleic acid), whereby the content of cellular DNA is a direct measure of the number of cells within a sample.
# (§2) Human epidermal keratinocyte cells (HaCaT) were seeded in a 96-well plate at a cell density of 5,000 cells/well and cultured in medium (DMEM with 10% FBS, 1% penicillin-streptomycin, 0.5% fungizone). On the next day and after a further 24 h, 48 h and 72 h of cultivation at 37° C. and 5 vol. % CO2, the cell culture medium without (control) or with the respective concentrations of active substance already contained was changed. […]
# VEGF = VEGF gene expression by qRT-PCR; details: HaCaT; after 24 h of cultivation; versus control without DMG
# Method: VEGF (vascular endothelial growth factor) promotes the growth and formation of new blood and lymph vessels. Gene expression was measured using a standard method known as quantitative real-time PCR (qRT-PCR).
# Human epidermal keratinocyte cells (HaCaT) were seeded in a 6-well plate at a cell density of 140,000 cells/well and cultured in medium (DMEM with 10% FBS, 1% penicillin-streptomycin, 0.5% fungizone) at 37° C. and 5 vol % CO2. On the next day, the cell culture medium without (control) or with the respective concentrations of active substance already contained was changed and the cells were harvested after 24 hours. Gene expression was measured using qRT-PCR based on previously published studies in B. V. Diaz, M.-C. Lenoir, A. Ladoux, C. Frelin, M. Demarchez, S. Michel, Journal of Biological Chemistry 2000, 275, 642-650.
# HaCaT cells [2] = test: wound healing assay, migration; details: images after 16 h, 20 h and 24 h, different DMG concentrations, versus control without DMG
# Method: as §1
# A so-called wound healing assay was used to measure migration, based on previously published studies in T. Kawabata, T. Otsuka, K. Fujita, G. Sakai, R. Matsushima-Nishiwaki, O. Kozawa, H. Tokuda, International journal of molecular medicine 2018, 42, 3149-3156. The principle is based on measuring the migration of cells to a not yet colonized cultivation surface over time. For this purpose, 20,000 cells each were seeded into two adjacent wells or cavities separated by a silicone insert (with standardized width) and cultivated in medium (DMEM with 5% FBS, 1% penicillin-streptomycin, 0.5% fungizone) for 48 h at 37° C. and 5 vol % CO2. The plastic insert was then removed (“creation of the wound”) and the migration of the cells was documented by determining the cultivation surface not colonized with cells over time using images. […]
# HaCaT cells [3] = test: MTT assay, cell viability; details: after 48 h and 72 h of cultivation, versus control without DMG
# Method: as §1
# For this measurement, a so-called MTT assay was used to determine cellular metabolic activity as an indicator of cell viability and cytotoxicity. This colorimetric assay is based on the reduction of a yellow tetrazolium salt (3-(4,5-dimethylthiazol-2-yl)-2,5-diphenyltetrazolium bromide or MTT) to purple formazan crystals by metabolically active cells.
# as §2, with “sodium dimethylglycinate (DMG)” for “active substance”
# Interleukin-6 (IL-6) = test: IL-6 gene expression by qRT-PCR after cytokine-induced inflammation; details: HaCaT; 25 ng/ml TNFα and 25 ng/ml IFNγ; DMG 0.005%-0.00005%; 24 h; versus positive control of inflammation induction
# Method: Interleukin-6 (IL-6) is a peptide hormone of the immune system from the group of pro-inflammatory interleukins and plays a key role in the non-specific, innate immune response. Gene expression was measured using a standard method known as quantitative real-time PCR (qRT-PCR).
# Human epidermal keratinocyte cells (HaCaT) were seeded in a 6-well plate at a cell density of 140,000 cells/well and cultured in medium (DMEM with 10% FBS, 1% penicillin-streptomycin, 0.5% fungizone) at 37° C. and 5 vol % CO2. On the next day, cytokine treatment (25 ng/ml tumor necrosis factor-alpha (TNFα) and 25 ng/ml interferon-gamma (IFNγ)) was used to induce cell inflammation. […] with the different DMG drug concentrations (inflammation induction+DMG 0.005%−0.00005%) or without DMG (positive control of inflammation induction). In parallel, cells were treated without any treatment (control) or only with the different DMG drug concentrations (DMG 0.005%−0.00005%) and the cells were harvested after 24 h for gene expression analysis. Gene expression was measured using qRT-PCR based on previously published studies in B. V. Diaz, M.-C. Lenoir, A. Ladoux, C. Frelin, M. Démarchez, S. Michel, Journal of Biological Chemistry 2000, 275, 642-650.
compound,measurement,setting,value
"CN(C)CC(=O)[O-].[Na+] [DMG, sodium dimethylglycinate]","cell proliferation (CyQUANT, fluorescence normalized to control at 24 h)",HaCaT cells [1],clear increase
same,relative gene expression of VEGF (normalized to GAPDH),VEGF,significant increase
same,migration or wound closure,HaCaT cells [2],significantly faster
same,"cell viability (MTT, absorption normalized to control at 24 h)",HaCaT cells [3],clear increase
same,expression of interleukin-6 induced by cytokine treatment,Interleukin-6 (IL-6),dose-dependently reduced
